Patent publication US20230255906A1, “Targeting Serpin B9 in Cancer” (The Brigham and Women`s Hospital, Inc., priority 2020, published 2023)

Test system: B16 melanoma cells
Assay: Caspase-3 activity assay (EnzChek Caspase-3 Assay Kit), caspase-3 induction in tumor cells; note: test concentration or dose not given here
Assay type: cell-based, mouse
Settings: for Caspase-3 induction, Normalized to Formula (III) (%): relative to compound of Formula (III)
Description: The EnzChek® Caspase-3 Assay Kit was used to detect apoptosis by assaying for increases in caspase-3 activities. The basis for the assay was rhodamine 110 bis-(N-CBZ-L-aspartyl-L-glutamyl-L-valyl-L-aspartic acid amide) (Z-DEVD-R110). This substrate is a bisamide derivative of rhodamine 110 (R110) containing DEVD peptides covalently linked to each of R110's amino groups, thereby suppressing the dye's visible absorption and its fluorescence. Upon enzymatic cleavage, the nonfluorescent bisamide substrate is converted in a two-step process first to a fluorescent monoamide and then to an even more fluorescent R110.
At least 1×10^6 cells of the lysate were used for each reaction. B16 cells were treated with compounds to induce apoptosis. A negative control was prepared by incubating cells in the absence of compounds. The cells were incubated with compounds for 24 hrs and washed in PBS. Each cell sample or control was resuspended in 50 μL of the 1×cell lysis buffer. Cells were lysed by incubating on ice for 30 minutes, and the lysed cells were centrifuged to pellet the cellular debris. 50 μL of the supernatant was transferred from each sample to individual microplate wells. 50 μL of the 1× cell lysis buffer was used as a no-enzyme control to determine the background fluorescence of the substrate. 50 μL of the 2×substrate working solution was added to each sample and control. The microplate was covered, and the samples were incubated at room temperature for approximately 30 minutes. The fluorescence was measured by a fluorescence microplate reader (excitation/emission ˜496/520 nm) using excitation and emission filters.
The ability of this small molecule inhibitor to inhibit intracellular Sb9 was then evaluated. As a marker for cell penetration, the induction of caspase-3 activity in B16 melanoma cells as a surrogate marker for increased GrB activity was measured.
The induction of caspase-3 activity in B16 melanoma cells as a surrogate marker for increased GrB activity was also measured for other small molecules (compounds of Formulas (V) and (VI) as described herein).

| Structure (SMILES) | Ratio of caspase-3 activity to Formula (III) | Caspase-3 induction, Normalized to Formula (III) (%) |
| --- | --- | --- |
| CO[C@H]1CN(C)C[C@@H]1NC(=O)c1ccc2oc(-c3cccc(F)c3)nc2c1 (relative stereo) [2-(3-fluorophenyl)-N-[(3S*,4S*)-4-methoxy-1-methylpyrrolidin-3-yl]-1,3-benzoxazole-5-carboxamide] | 0.08936 | – |
| CCC(=O)C1CCCN(C(=O)c2ccc3nc(-c4cccc(OC)c4)oc3c2)C1 (stereo not shown) [1-(1-{[2-(3-methoxyphenyl)-1,3-benzoxazol-6-yl]carbonyl}-3-piperidinyl)-1-propanone] | 0.1346 | – |
| COc1cc(Br)c(C(=O)N2CCCC2)cc1OC [1-(2-bromo-4,5-dimethoxybenzoyl)pyrrolidine] | – | 18.4794% |
| O=C(c1ccc2nc(-c3ccccc3)oc2c1)N1CCC(O)CC1 [1-(2-phenyl-1,3-benzoxazole-6-carbonyl)piperidin-4-ol] | 1.327 | – |
| O=C(c1ccc2oc(-c3cccc(F)c3)nc2c1)N1CCC(O)(c2ccccc2)CC1 [1-{[2-(3-fluorophenyl)-1,3-benzoxazol-5-yl]carbonyl}-4-phenyl-4-piperidinol] | 0.1773 | – |
| COc1cccc(-c2nc3ccc(C(=O)N4CCC(N(C)C)C4)cc3o2)c1 (stereo not shown) [1-{[2-(3-methoxyphenyl)-1,3-benzoxazol-6-yl]carbonyl}-N,N-dimethyl-3-pyrrolidinamine] | 0.9908 | – |
| O=C(c1ccc2nc(C(F)(F)C(F)(F)F)oc2c1)N1CCCC1 [2-(1,1,2,2,2-pentafluoroethyl)-6-(pyrrolidine-1-carbonyl)-1,3-benzoxazole] | – | −38.2832% |
| O=C(Cc1ccc2ocnc2c1)N1CCCC1 [2-(1,3-benzoxazol-5-yl)-1-(pyrrolidin-1-yl)ethan-1-one] | – | 3.0541% |
| COCCCNC(=O)Cc1ccc2ocnc2c1 [2-(1,3-benzoxazol-5-yl)-N-(3-methoxypropyl)acetamide] | – | −31.2011% |
| O=C(Cc1ccc2ocnc2c1)NCc1ccccc1 [2-(1,3-benzoxazol-5-yl)-N-benzylacetamide] | – | −34.4942% |
| O=C(Cc1ccc2ocnc2c1)NC1CCCC1 [2-(1,3-benzoxazol-5-yl)-N-cyclopentylacetamide] | – | −4.02% |
| CCN(CCN(C)C)C(=O)c1cnc2c(c1)nc(-c1ccccc1Cl)n2C [2-(2-chlorophenyl)-N-[2-(dimethylamino)ethyl]-N-ethyl-3-methyl-3H-imidazo[4,5-b]pyridine-6-carboxamide] | 1.106 | – |
| O=C(c1ccc2nc(-c3cc(Cl)cc(Cl)c3)oc2c1)N1CCCC1 [2-(3,5-dichlorophenyl)-6-(pyrrolidine-1-carbonyl)-1,3-benzoxazole] | – | −6.23% |
| COCCCNC(=O)c1ccc2nc(-c3cc(Cl)cc(Cl)c3)oc2c1 [2-(3,5-dichlorophenyl)-N-(3-methoxypropyl)-1,3-benzoxazole-6-carboxamide] | – | −31.5901% |
| CCN(C)C(=O)c1ccc2nc(-c3cc(Cl)cc(Cl)c3)oc2c1 [2-(3,5-dichlorophenyl)-N-ethyl-N-methyl-1,3-benzoxazole-6-carboxamide] | – | −85.6535% |
| COCCOC1CCN(C(=O)c2ccc3oc(-c4cccc(F)c4)nc3c2)CC1 [2-(3-fluorophenyl)-5-{[4-(2-methoxyethoxy)-1-piperidinyl]carbonyl}-1,3-benzoxazole] | 0.1314 | – |
| CN(CCC(O)c1ccccc1)C(=O)c1ccc2oc(-c3cccc(F)c3)nc2c1 (stereo not shown) [2-(3-fluorophenyl)-N-(3-hydroxy-3-phenylpropyl)-N-methyl-1,3-benzoxazole-5-carboxamide] | 0.1288 | – |
| O=C(NCc1cccnc1)c1ccc2oc(-c3cccc(F)c3)nc2c1 [2-(3-fluorophenyl)-N-(3-pyridinylmethyl)-1,3-benzoxazole-5-carboxamide] | 0.1077 | – |
| O=C(NCc1ccno1)c1ccc2oc(-c3cccc(F)c3)nc2c1 [2-(3-fluorophenyl)-N-(isoxazol-5-ylmethyl)-1,3-benzoxazole-5-carboxamide] | 0.09526 | – |

| Structure (SMILES) | Ratio of caspase-3 activity to Formula (III) | Caspase-3 induction, Normalized to Formula (III) (%) |
| --- | --- | --- |
| CC(NC(=O)c1ccc2oc(-c3cccc(F)c3)nc2c1)c1ncn[nH]1 (stereo not shown) [2-(3-fluorophenyl)-N-[1-(1H-1,2,4-triazol-5-yl)ethyl]-1,3-benzoxazole-5-carboxamide] | 0.1158 | – |
| CC(Cn1cncn1)NC(=O)c1ccc2oc(-c3cccc(F)c3)nc2c1 (stereo not shown) [2-(3-fluorophenyl)-N-[1-methyl-2-(1H-1,2,4-triazol-1-yl)ethyl]-1,3-benzoxazole-5-carboxamide] | 0.1014 | – |
| Cn1cc(CCNC(=O)c2ccc3oc(-c4cccc(F)c4)nc3c2)cn1 [2-(3-fluorophenyl)-N-[2-(1-methyl-1H-pyrazol-4-yl)ethyl]-1,3-benzoxazole-5-carboxamide] | 0.4475 | – |
| O=C(NCCn1cccn1)c1ccc2oc(-c3cccc(F)c3)nc2c1 [2-(3-fluorophenyl)-N-[2-(1H-pyrazol-1-yl)ethyl]-1,3-benzoxazole-5-carboxamide] | 0.4693 | – |
| O=C(NCCc1cn[nH]c1)c1ccc2oc(-c3cccc(F)c3)nc2c1 [2-(3-fluorophenyl)-N-[2-(1H-pyrazol-4-yl)ethyl]-1,3-benzoxazole-5-carboxamide] | 0.4925 | – |
| O=C(NCCc1ccco1)c1ccc2oc(-c3cccc(F)c3)nc2c1 [2-(3-fluorophenyl)-N-[2-(2-furyl)ethyl]-1,3-benzoxazole-5-carboxamide] | 0.09438 | – |
| Cn1cnnc1CCNC(=O)c1ccc2oc(-c3cccc(F)c3)nc2c1 [2-(3-fluorophenyl)-N-[2-(4-methyl-4H-1,2,4-triazol-3-yl)ethyl]-1,3-benzoxazole-5-carboxamide] | 0.7133 | – |
| O=C(NCCCn1cccn1)c1ccc2oc(-c3cccc(F)c3)nc2c1 [2-(3-fluorophenyl)-N-[3-(1H-pyrazol-1-yl)propyl]-1,3-benzoxazole-5-carboxamide] | 0.9113 | – |
| Cn1cc(CNC(=O)c2ccc3oc(-c4cccc(F)c4)nc3c2)cn1 [2-(3-fluorophenyl)-N-[(1-methyl-1H-pyrazol-4-yl)methyl]-1,3-benzoxazole-5-carboxamide] | 0.1005 | – |
| Cc1nc(CNC(=O)c2ccc3oc(-c4cccc(F)c4)nc3c2)cs1 [2-(3-fluorophenyl)-N-[(2-methyl-1,3-thiazol-4-yl)methyl]-1,3-benzoxazole-5-carboxamide] | 0.09788 | – |
| O=C(N[C@H]1CCCCNC1=O)c1ccc2oc(-c3cccc(F)c3)nc2c1 [2-(3-fluorophenyl)-N-[(3S)-2-oxo-3-azepanyl]-1,3-benzoxazole-5-carboxamide] | 0.771 | – |
| CC(C)N(Cc1nccn1C)C(=O)c1ccc2oc(-c3cccc(F)c3)nc2c1 [2-(3-fluorophenyl)-N-isopropyl-N-[(1-methyl-1H-imidazol-2-yl)methyl]-1,3-benzoxazole-5-carboxamide] | 1.634 | – |
| CN(CCN1CCCCC1)C(=O)c1ccc2oc(-c3cccc(F)c3)nc2c1 [2-(3-fluorophenyl)-N-methyl-N-[2-(1-piperidinyl)ethyl]-1,3-benzoxazole-5-carboxamide] | 0.1405 | – |
| CCCOC1CCCN(C(=O)c2ccc3nc(-c4cccc(OC)c4)oc3c2)C1 (stereo not shown) [2-(3-methoxyphenyl)-6-[(3-propoxy-1-piperidinyl)carbonyl]-1,3-benzoxazole] | 0.1495 | – |
| COc1cccc(-c2nc3ccc(C(=O)N4CCN(Cc5cccnc5)CC4)cc3o2)c1 [2-(3-methoxyphenyl)-6-{[4-(3-pyridinylmethyl)-1-piperazinyl]carbonyl}-1,3-benzoxazole] | 0.1411 | – |
| COc1cccc(-c2nc3ccc(C(=O)NCc4nnn[nH]4)cc3o2)c1 [2-(3-methoxyphenyl)-N-(1H-tetrazol-5-ylmethyl)-1,3-benzoxazole-6-carboxamide] | 0.3911 | – |
| COc1cccc(-c2nc3ccc(C(=O)NCC(F)(F)F)cc3o2)c1 [2-(3-methoxyphenyl)-N-(2,2,2-trifluoroethyl)-1,3-benzoxazole-6-carboxamide] | 0.09526 | – |
| COc1cccc(-c2nc3ccc(C(=O)NCC4CCCO4)cc3o2)c1 (stereo not shown) [2-(3-methoxyphenyl)-N-(tetrahydro-2-furanylmethyl)-1,3-benzoxazole-6-carboxamide] | 0.4304 | – |
